Measurements from patent US20230381204A1, “COMPOSITIONS FOR TREATING INFLAMMATIONS, WOUNDS AND SCARRING” (priority 2020, published 2023).

Tests used:
IL-6 = test: LPS-induced IL-6 secretion in RAW 264.7 cells (ELISA); assay type: cell-based; conditions: Mus musculus, RAW264.7, LPS 25 ng/ml, 24 hr
Method: (§1) RAW 264.7 cells ([…] ¢/ml, by counting) were seeded in 96 well plates containing 170 μl/well of complete growth medium (See formulation section). The cells were incubated at 37° C. with 5% CO2 for 24 hr. The medium was aspirated and replaced by LPS-containing medium (25 ng/ml) with or without the Tested Samples at two different concentrations (similarly to what is presented in Table 1). In addition, Naïve cells (Group 1), vehicle treated cells (Group 2), Stimulated Control (Group 3) and Stimulated Vehicle Control (Group 4) served as negative controls. SDS (Group 5) and Dexamethasone (Group 6) served as positive controls for viability and anti-inflammatory assays, respectively. A Blank control group was included in the assay (Group 11), and subtracted from all treatments.
(§2) The cells were incubated at 37° C. with 5% CO2 for 24 hr. At the end of incubation, the viability of the cells was measured using the MTT assay, according to SOP. […] IL-1α, TNFα and IL-6 levels were measured by ELISA, according to manufacturer instructions. […]
(§3) The anti-inflammatory activity of the Tested Samples was examined in the LPS-induced inflammatory model (RAW 264.7 cells) and the secretion of three cytokines was monitored. Then, the compatibility and possible synergistic action of selected combination was determined. IL-1α, TNFα and IL-6 levels were measured by ELISA, according to manufacturer instructions.

TNFα = test: LPS-induced TNFα secretion in RAW 264.7 cells (ELISA); assay type: cell-based, Mouse
Method: RAW 264.7 cells (170×105 ¢/ml, by counting) were seeded in 96 well plates containing 170 μl/well of complete growth medium (See formulation section). The cells were incubated at 37° C. with 5% CO2 for 24 hr. The medium was aspirated and replaced by LPS-containing medium (25 ng/ml) with or without the Tested Samples at two different concentrations (similarly to what is presented in Table 1). In addition, Naïve cells (Group 1), vehicle treated cells (Group 2), Stimulated Control (Group 3) and Stimulated Vehicle Control (Group 4) served as negative controls. SDS (Group 5) and Dexamethasone (Group 6) served as positive controls for viability and anti-inflammatory assays, respectively. A Blank control group was included in the assay (Group 11), and subtracted from all treatments.
The cells were incubated at 37° C. with 5% CO2 for 24 hr. At the end of incubation, the viability of the cells was measured using the MTT assay, according to SOP. Viability greater than 85% was considered nontoxic. In addition, the spent media from all test groups was collected under standardized conditions and centrifuged at 250×g for 5 min to remove particulates. Clear supernatants were frozen at −70° C. until cytokine analysis. IL-1α, TNFα and IL-6 levels were measured by ELISA, according to manufacturer instructions.
Cell culturing and treatments was performed under sterile conditions. Experiments were carried out in a certified RAW 264.7 cells (Mouse monocyte macrophage) obtained originally from ECACC. The cells were incubated at 37° C. with 5% CO2 for 24 hr. Then, the medium
was aspirated and replaced by LPS-containing medium (25 ng/ml) with or without the Tested Samples. In addition, Naïve cells, vehicle treated cells, Stimulated Control and Stimulated Vehicle Control served as negative controls. Dexamethasone served as positive controls for anti-inflammatory assays. Blank control group was included in the assay, and subtracted from all treatments.
The anti-inflammatory activity of the Tested Samples was examined in the LPS-induced inflammatory model (RAW 264.7 cells) and the secretion of three cytokines was monitored. […] IL-1α, TNFα and IL-6 levels were measured by ELISA, according to manufacturer instructions.
Experiments were carried out in a certified RAW 264.7 cells (Mouse monocyte macrophage) obtained originally from ECACC. RAW 264.7 cells (approx. 2×105 ¢/ml, by counting) were seeded in 96 well plates containing 170 μl/well of complete growth medium. The cells were incubated at 37° C. with 5% CO2 for 24. Next, the medium was aspirated and replaced by LPS-containing medium (25 ng/ml) with or without the Tested Samples.
In addition, Naïve cells, vehicle treated cells, Stimulated Control and Stimulated Vehicle Control served as controls (FIG. 4A). […]

IL-1α = test: LPS-induced IL-1α secretion in RAW 264.7 cells (ELISA); assay type: cell-based; conditions: Mus musculus, read-out: IL-1 alpha inhibition
Method: as §1, §2, §3

RAW 264.7 cells = test: MTT cell viability (toxicity evaluation) in RAW 264.7 cells; assay type: cell-based, Mouse; conditions: positive control for viability, 0.1%; 24 hr
Method: The assay was performed on 15 Tested Samples in triplicates (the Tested Samples are labeled 1-11 and 13-16). RAW 264.7 cells (1.7×10^5 ¢/ml, by counting) were seeded in 96 well plates containing […] of complete growth medium (see formulation section). The cells were incubated at 37° C. with 5% CO2 for 24 hr. The medium was aspirated and replaced by LPS-containing medium (25 ng/ml) with or without the Tested Samples at four different concentrations, as described below. In addition, Naive cells (Group 1), vehicle treated cells (Group 2), Stimulated Control (Group 3) and Stimulated Vehicle Control (Group 4) served as negative controls. SDS (Group 5) and Dexamethasone (Group 6) served as positive controls for viability and anti-inflammatory assays, respectively. The blank control group was included in the assay (Group 11), and subtracted from all treatments. The cells were incubated at 37° C. with 5% CO2 for 24 hr. At the end of incubation, the viability of the cells was measured using the MTT assay. Viability greater than 85% was considered nontoxic.

C=C(C)[C@@H]1CCC(C)=C[C@H]1c1c(O)cc(CCCCC)cc1O [CBD, cannabidiol]
inhibition at 0.1 µg/mL (IL-6; 0.1 μg/ml alone): 8.2% | inhibition at 0.5 µg/mL (IL-6; 0.5 μg/ml alone): 10.6% | inhibition at 0.1 µg/mL (TNFα; Mus musculus, RAW264.7, 0.1 μg/ml alone, LPS 25 ng/ml, 24 hr, read-out: TNF alpha inhibition): 12.3% | inhibition at 0.5 µg/mL (TNFα; Mus musculus, RAW264.7, 0.5 μg/ml alone, LPS 25 ng/ml, 24 hr, read-out: TNF alpha inhibition): 22.6% | inhibition at 0.5 µg/mL (IL-1α; RAW264.7, 0.5 μg/ml alone, LPS 25 ng/ml, 24 hr): 7.6%

CCCCCc1cc(O)c(C/C=C(\C)CCC=C(C)C)c(O)c1 [CBG, cannabigerol]
inhibition at 2 µg/mL (TNFα; Mus musculus, RAW264.7, 24 h, read-out: TNF alpha inhibition): 26.8% | inhibition at 2 µg/mL (IL-1α; RAW264.7, 24 h): 12.9%

CCCCCCCCCCCCOS(=O)(=O)[O-].[Na+] [SDS]
cell viability (MTT) (RAW 264.7 cells): toxic and caused a significant reduction in cell viability

NC(=O)NC1NC(=O)NC1=O (stereo not drawn) [allantoin]
TNF alpha inhibition (TNFα; 2 μg/ml alone, LPS 25 ng/ml): no activity
